Common to all, as to assay type: in vivo
One assay relates to bermudagrass. The assay can be described thus: Fertilizer efficacy on bermudagrass (quality, color, clipping weight). The note with it: LSG at high rate (Tables 8 and 9). Here is the method: (§1) In another embodiment, the fertilizers of the various embodiments described herein were compared to industry standards for efficacy and phytotoxicity on St. Augustinegrass and bermudagrass. In another embodiment the experimental fertilizers were evaluated for their efficacy as a pre-emergent herbicide compared to an industry standard.
Efficacy of the fertilizers on the Bermudagrass Site was evaluated by applying, treatments 1-8 to 4 replications of 1 m×2 m bermudagrass plots set up as a randomized complete block. Nature Safe was applied as a granular, while ammonium sulfate and remaining products were applied as split liquid treatments sprayed out using a CO2 boom sprayer set to deliver a volume of 1 gallon/1000 ft^2. Turfgrass ratings were taken to ensure turf quality/color uniformity.
After 6 weeks all 10 treatments were applied to 4 replications of bermudagrass plots. Products 3-10 were again applied as split liquid treatments sprayed out using a CO2 boom sprayer. Split treatments were re-applied approximately 2 weeks later. Plots were mowed at 0.5 inches before fertilizer application. Irrigation (0.15 inch) was applied following application. Clipping samples were taken approximately monthly for dry weight (grams) determination. […] All data was subject to statistical analysis and significant means were determined.

In assay [1] the test system is 'Floratam' St. Augustinegrass. In words: Fertilizer efficacy on St. Augustinegrass (quality, color, clipping weight). Particulars: St. Augustinegrass sites 1 and 2; LSG at high rate (Tables 4-7). Here is the method:
as §1
Efficacy of the fertilizers on the St. Augustinegrass Site was evaluated by applying treatments 1-8 to 4 replications of ‘Floratam’ St. Augustinegrass. Plot size was 1 m×2 m set up as a randomized complete block. Initially Nature Safe was applied as a granular, while ammonium sulfate and remaining products were applied as split liquid treatments sprayed out using a CO2 boom sprayer set to deliver a volume of 1 gallon/1000 ft^2. After six weeks all 10 treatments were applied to the 4 replications of ‘Floratam’. Products 3-10 were again applied as split liquid treatments using a CO2 boom sprayer. Split treatments were re-applied approximately 2 weeks later. Plots were mowed at 3.0 inches before fertilizer application. Irrigation (0.15 inch) was applied following each application. Clipping samples were taken approximately monthly for dry weight (grams) determination. […] All data was subject to statistical analysis and significant means were determined.

The next assay deals with weeds. The assay can be described thus: Pre-emergent herbicide efficacy, percent weed cover on bare soil. The note with it: compared to the untreated control (Table 13). Here is the method:
Herbicide efficacy of the fertilizers was evaluated with Granular Lysine (LSG), Liquid Lysine (LSL), and Ronstar G by applying them to 3 replications of 1 m×1 m plots which also included an untreated control. Plots were located in an area of known weed infestation problems. Plots were prepared prior to treatment application by rototilling and applying 3 glyphosate applications to clear up pre-existing weeds and the test was initiated with 0 percent weed in all plots. On approximately monthly intervals percent weed cover ratings were taken. All data was subject to statistical analysis and significant means were determined.

The source of these data is US8623110B2, “Protein and isolated or purified amino acid product containing compositions and uses thereof” (Archer Daniels Midland Company, priority 2007, dated 2014).

As for `Cl.NCCCC[C@H](N)C(=O)O` [LSG, L-lysine monohydrochloride], the “turfgrass quality and color (scale of 1-10)” value with bermudagrass is reported as “best numerical turfgrass scores on most dates”; in assay [1] it was “highest numerical average on many rating dates”. In addition, in the assay with weeds, the “weed ratings (percent weed cover)” value is given as “not significantly different”.
